Measured values as given in patent US5242938A, “Derivatives of virginiamycin M1” (Merck & Co., Inc., priority 1992, dated 1993).
≈ marks a conversion by molar mass, not a printed value. Where two headings read alike, the source gives them in different places.

Legend:
[1] = target: T1, CCK-B (guinea pig cortex) (Cavia porcellus, UniProt H0VZC5); assay: [125I]BHCCK-8 radioligand binding, guinea pig cortical preparation; conditions: read-out: CCK binding inhibition - IC50, [125I]BHCCK
T1 construct: guinea pig cortical preparations; from tissue; host or cells: guinea pig brain cortex membranes
T1 sequence (H0VZC5 1-426): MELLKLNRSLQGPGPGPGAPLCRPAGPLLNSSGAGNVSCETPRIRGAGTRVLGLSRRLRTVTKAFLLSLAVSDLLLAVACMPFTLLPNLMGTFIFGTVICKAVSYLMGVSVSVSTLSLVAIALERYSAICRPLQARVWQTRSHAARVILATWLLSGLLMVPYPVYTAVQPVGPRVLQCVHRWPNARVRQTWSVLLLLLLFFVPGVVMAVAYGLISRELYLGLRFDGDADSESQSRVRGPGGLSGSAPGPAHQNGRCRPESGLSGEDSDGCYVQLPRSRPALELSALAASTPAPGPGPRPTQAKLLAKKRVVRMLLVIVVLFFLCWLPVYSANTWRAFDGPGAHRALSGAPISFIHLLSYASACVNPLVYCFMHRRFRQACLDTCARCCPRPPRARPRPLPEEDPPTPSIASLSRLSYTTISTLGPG
Method: (§1) The resulting supernatant was re-spun at 20,000×g for 20 minutes. […] Incubations were for 40 minutes at 4° C. and were terminated by filtration and washing with ice cold 100 mM saline. […] Incubations were for 30 minutes at room temperature and were terminated by filtration over GF/C filters and washing with 100 mM NaCl.

[2] = target: T1, CCK-B (guinea pig cortex); assay: [3H]L-365,260 CCK-B selective antagonist ligand binding, brain membranes; conditions: for percentage in parentheses beside >3.0, [3H]L-365,260 (inhibition at top concentration, not defined): beside IC50 >3.0; for IC50: read-out: CCK binding inhibition - IC50, [3H]L-365,260
Method: as §1

[3] = target: T2, CCK-A (rat pancreas) (Rattus norvegicus, UniProt P30551); assay: [125I]BHCCK-8 radioligand binding, rat pancreatic preparation; conditions: read-out: CCK binding inhibition - IC50, [125I]BHCCK
T2 construct: from tissue; host or cells: rat pancreas
T2 sequence (P30551 1-444): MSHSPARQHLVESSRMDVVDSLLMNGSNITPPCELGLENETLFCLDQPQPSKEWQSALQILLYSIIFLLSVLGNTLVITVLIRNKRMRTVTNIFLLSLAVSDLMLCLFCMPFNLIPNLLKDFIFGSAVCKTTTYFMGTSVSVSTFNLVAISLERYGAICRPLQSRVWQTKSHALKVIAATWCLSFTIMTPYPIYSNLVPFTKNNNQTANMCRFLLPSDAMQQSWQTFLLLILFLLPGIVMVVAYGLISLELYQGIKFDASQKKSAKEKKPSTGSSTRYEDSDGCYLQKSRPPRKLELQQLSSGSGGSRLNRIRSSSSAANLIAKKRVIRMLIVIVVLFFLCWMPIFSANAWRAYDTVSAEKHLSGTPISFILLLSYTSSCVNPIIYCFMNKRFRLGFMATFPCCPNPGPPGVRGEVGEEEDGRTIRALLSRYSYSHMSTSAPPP
Method: as §1

[4] = target: T2, CCK-A (rat pancreas); assay: [3H]L-364,718 CCK-A selective antagonist ligand binding, pancreas; conditions: read-out: CCK binding inhibition - IC50, [3H]L-364,718
Method: as §1

[5] = test system: Bacillus sp. (Mb 633); assay: Agar diffusion disc assay, Baci 633; type: cell-based; conditions: Bacillus, 18 h, @ 20 g/disc; read-out: Inhibition zone diameter, Baci 633
Method: (§2) Cultures employed in evaluating antimicrobial activity included plant pathogens, human and animal opportunistic pathogens and selected laboratory strains having specific-antibiotic sensitivities or chromosomal or R-plasmid-mediated resistances. […] The agar diffusion MIC's were determined using the method described by Barry in Anitbiotics in Laboratory Medicine, 2nd Ed., Ed. V. Lorian, pp. 1-63, William & Wilkins, Baltimore, 1986. Each test compound was dissolved in methanol to a concentration of 1 mg/ml. Serial dilutions of these compounds were also made to determine an agar diffusion MIC. 20 μl of each dilution was pipetted on to 6 mm paper discs, air dried and placed onto the surface of an agar plate seeded with the appropriate bacteria (~10^6 cfu). Seeded agar plates were incubated overnight (~18 hours) at 25° C. Zone sizes were measured to the nearest mm. Each compound was tested in triplicate and the results shown represent the mean.

[6] = test system: Staphylococcus aureus (Mb 108, ATCC 6538P); assay: Agar diffusion disc assay, Sta 108; type: cell-based; conditions: Staphylococcus aureus, ATCC6538P, 18 h; @ 20 g/disc; read-out: Inhibition zone diameter, Sta 108
Method: as §2

[7] = test system: Bacillus subtilis (Mb 964, ATCC 6633); assay: Agar diffusion disc assay, Subt 964; type: cell-based; conditions: Bacillus subtilis, ATCC6633, 18 h; @ 20 g/disc; read-out: Inhibition zone diameter, Subt 964
Method: as §2

[8] = test system: Micrococcus luteus (Mb 1101, ATCC 9341); assay: Agar diffusion disc assay, Micr 1101; type: cell-based; conditions: Micrococcus luteus; for MIC: read-out: Agar Diffusion MIC versus Micrococcus luteus; for zone of inhibition at 5 µg/disc: 5.00 μg/disc; for zone of inhibition at 10 µg/disc: 10.0 μg/disc
Method: as §2

[9] = test system: Staphylococcus aureus (Mb 2983); assay: Agar diffusion disc assay, Sta 2983; type: cell-based; conditions: Staphylococcus aureus, 18 h; @ 20 g/disc; read-out: Inhibition zone diameter, Sta 2983
Method: as §2

[10] = test system: Corynebacterium pseudodiphtheriticum (Mb 261, ATCC 9742); assay: Agar diffusion disc assay, Cory 261; type: cell-based; conditions: Corynebacterium pseudodiphtheriticum, ATCC9742, 18 h; @ 20 g/disc; read-out: Inhibition zone diameter, Cory 261
Method: as §2

[11] = test system: Streptococcus faecium (Mb 2820); assay: Agar diffusion disc assay, Str 2820; type: cell-based; conditions: Enterococcus faecium, 18 h; @ 20 g/disc; read-out: Inhibition zone diameter, Str 2820
Method: as §2

[12] = test system: Streptococcus agalactiae (Mb 2875); assay: Agar diffusion disc assay, Str 2875; type: cell-based; conditions: Streptococcus agalactiae, 18 h; @ 20 g/disc; read-out: Inhibition zone diameter, Str 2875
Method: as §2

[13] = test system: Salmonella gallinarum (Mb 1287); assay: Agar diffusion disc assay, Salm 1287; type: cell-based; conditions: Salmonella enterica, GALLINARUM, 18 h; @ 20 g/disc; read-out: Inhibition zone diameter, Salm 1287
Method: as §2

[14] = test system: Escherichia coli (Mb 1418); assay: Agar diffusion disc assay, Coli 1418; type: cell-based; conditions: Escherichia coli, 18 h; @ 20 g/disc; read-out: Inhibition zone diameter, Coli 1418
Method: as §2

[15] = test system: Pseudomonas stutzeri (Mb 1231, ATCC 11607); assay: Agar diffusion disc assay, Pseu 1231; type: cell-based; conditions: Stutzerimonas stutzeri, ATCC11607, 18 h; @ 20 g/disc; read-out: Inhibition zone diameter, Pseu 1231
Method: as §2

[16] = test system: En terobacter aergenes (Mb 835); assay: Agar diffusion disc assay, Ent 835; type: cell-based; conditions: 18 h; @ 20 g/disc; read-out: Inhibition zone diameter, Ent 835
Method: as §2

[17] = ATCC9341, 18 h, @ 20 g/disc, read-out: Inhibition zone diameter, Micr 1101
[18] = ATCC9341, 25° C., ~18 hours, read-out: Mean of triplicate zone size versus Micrococcus luteus
[19] = ATCC9341, 20.0 μg/disc, 25° C., ~18 hours, read-out: Mean of triplicate zone size versus Micrococcus luteus

Structure (SMILES)	IC50 [1]	A.R. = agonist ratio = IC50([3H]L365,260)/IC50([125I]CCK) [2]	percentage in parentheses beside >3.0, [3H]L-365,260 (inhibition at top concentration, not defined) [2]	IC50 [2]	IC50 [3]	IC50 [4]	zone of inhibition at 20 µg/disc [5]	zone of inhibition at 20 µg/disc [6]	zone of inhibition at 20 µg/disc [7]	zone of inhibition at 20 µg/disc [8, 17]	MIC ([8]; ATCC9341, 18 h)	zone of inhibition at 5 µg/disc [8, 18]	zone of inhibition at 10 µg/disc [8, 18]	zone of inhibition at 20 µg/disc [8, 19]	zone of inhibition at 20 µg/disc [9]	zone of inhibition at 20 µg/disc [10]	zone of inhibition at 20 µg/disc [11]	zone of inhibition at 20 µg/disc [12]	zone of inhibition at 20 µg/disc [13]	zone of inhibition at 20 µg/disc [14]	also measured
CC(=O)OC1=Cc2nc(co2)C(=O)N2CCC=C2C(=O)O[C@H](C(C)C)[C@H](C)/C=C/C(=O)NC/C=C/C(C)=C/[C@@H](OC(C)=O)C1 [Example 1]	0.8 µM	> 25	13%	> 3 µM	> 3 µM	> 3 µM	0 mm	9 mm	0 mm	17 mm	1.92 µM (≈ 1.17 µg/mL)	12 mm	15 mm	16 mm	0 mm	14 mm	0 mm	0 mm	0 mm	0 mm	zone of inhibition at 20 µg/disc [15]: 0 mm; zone of inhibition at 20 µg/disc [16]: 0 mm
CC(=O)O[C@@H]1/C=C(C)/C=C/CNC(=O)/C=C/[C@@H](C)[C@@H](C(C)C)OC(=O)C2=CCCN2C(=O)c2coc(n2)CC(=O)C1 [Example 2]	0.7 µM	> 25	21%	> 3 µM	> 3 µM	> 3 µM	0 mm	11 mm	0 mm	21 mm	3.24 µM (≈ 1.84 µg/mL)	14 mm	18 mm	21 mm	0 mm	13 mm	0 mm	0 mm	0 mm	0 mm	zone of inhibition at 2.5 µg/disc ([8]; ATCC9341, 2.50 μg/disc, 25° C., ~18 hours, read-out: Mean of triplicate zone size versus Micrococcus luteus): 7 mm; zone of inhibition at 20 µg/disc [15]: 0 mm; zone of inhibition at 20 µg/disc [16]: 0 mm
